This is an account of results in patent US20050026977A1, “Zonisamide use in eating disorders” (priority 2002, published 2005).

For data set [1] the following is noted: preliminary studies; cited from earlier work.
Data set [2] relates to obese subjects (BMI of 30-44 kg/m^2). Briefly: 16-week randomized, double-blind, placebo-controlled trial of zonisamide in obesity. It counts as in vivo, human. The procedure: Objective: Short-term efficacy and safety of zonisamide in the treatment of obesity was evaluated. Inclusion Criteria: (1) Age 21-50; (2) BMI of 30-44 kg/m^2; and (3) Otherwise healthy as determined by the principal investigator. […] Method: 60 subjects were assigned to receive zonisamide or placebo (1:1 ratio) in a randomized, double-blind fashion for 16 weeks in addition to a slightly hypocaloric (500 kcal/day deficit) diet. Zonisamide dosing was flexible with a maximum of 600 mg/day. Zonisamide was started at 100 mg/d. Based on tolerability, the dose was titrated up as follows: Weeks 3-4: 200 mg/d; Weeks 5-6: 300 mg/d; Weeks 7-12: 400 mg/d. At the end of week 12, for those where at least 5% weight loss was not achieved, the dose was further increased to 600 mg/d. The entire dose is given at bedtime. However, based on tolerability, a part of the daily dose may be given in the morning.

The subject of data set [3] is patients. To be noted: patients treated with zonisamide; cited from earlier work.
For data set [4] the following is noted: in vivo; cited from earlier work.
For data set [5], the system named is cultured mouse spinal cord neurons. To be noted: 10-30 μg/mL; cited from earlier work.
Data set [6] relates to rat hippocampal slices. The conditions noted are these: 10-30 μg/mL; cited from earlier work.
Data set [7] has as its system GABA/benzodiazepine receptor ionophore complex. To be noted: in vitro; cited from earlier work.
Data set [8] relates to kindled rat model. The conditions noted are these: in vivo; cited from earlier work.
Data set [9] concerns cats. The conditions noted are these: electrical stimulation of the visual cortex; cited from earlier work.
For data set [10], the system named is rats. The conditions noted are these: cortical application of tungstic acid gel in rats; cited from earlier work.
For data set [11], the system named is cats. To be noted: cortical freezing in cats; cited from earlier work.
For data set [12], the system named is beagle dogs. The conditions noted are these: dog, in vivo, 75 mg/kg/day; cited from earlier work.

`CC1(C)O[C@@H]2[C@@H](CO[C@@]3(COS(N)(=O)=O)OC(C)(C)O[C@@H]23)O1` [topiramate]: the “effect on appetite and binging” value in data set [1] is “suppress the appetite and to reduce the amount of binging”.
Consider `NS(=O)(=O)Cc1noc2ccccc12` [zonisamide, 1,2-benzisoxazole-3-methanesulfonamide], for which, in data set [2] (16-week period, all randomized subjects, last observation carried forward, flexible dosing, maximum 600 mg/day, plus hypocaloric diet, p<0.0001 vs placebo), the average bodyweight lost was 5.98%. For the same molecule, the “greater weight loss over placebo treatment (random coefficient regression estimate)” value in data set [2] (16-week study duration, effects for age, race, gender, BMI, percent body fat, p<0.0001) is 4.99 kg. In addition, in data set [2] (16 weeks), the “efficacy versus placebo as adjunct to hypocaloric diet in treatment of obesity” value is on record as “significantly more effective than placebo”. Further, the “tolerability / side effects” value in data set [2] (16 weeks, up to 600 mg/day) is reported as “tolerated well with minimal side effects”. In addition, the “subjects who lost ≥5% weight” value in data set [2] (16 weeks, responders/subjects in group, p<0.0003 vs placebo) was 17/30. In data set [3], the “course of weight loss over time” value was “the weight loss did not continue over time” and the “weight loss as adverse event” value is “weight loss was an adverse event”. Also, the “adverse effect on appetite” value in data set [4] is listed as “loss of appetite as an adverse effect”. Besides, in data set [5], the “effect on postsynaptic GABA or glutamate responses” value is “without affecting postsynaptic GABA or glutamate responses” and the “effect on synaptically-driven electrical activity” value is “suppresses synaptically-driven electrical activity”. Further, the “effect on neuronal or glial uptake of [^3H]-GABA” value in [6] is “without affecting”. Also, the “binding to GABA/benzodiazepine receptor ionophore complex” value in [7] was “binds to the GABA/benzodiazepine receptor ionophore complex in an allosteric fashion which does not produce changes in chloride flux”. The “anticonvulsant activity in threshold for generalized seizures” value in data set [8] was “demonstrated an anticonvulsant activity”. The “duration of cortical focal seizures” value in data set [9] is listed as “reduced the duration of cortical focal seizures”. The “interictal spikes and secondarily generalized seizures” value in data set [10] was “suppresses both interictal spikes and the secondarily generalized seizures”. Moreover, the “interictal spikes and secondarily generalized seizures” value in data set [11] is “suppresses both interictal spikes and the secondarily generalized seizures”. Also, the “body weight change in chronic toxicity test” value in [12] is “early body weight losses occurred”.
